According to patent US20060069132A1, “Azolecarboxamide herbicides” (priority 2004, published 2006):

How the values were obtained:
[1] = system: barnyardgrass; assay: Test B pre-/postemergence herbicide test; format: in vivo, Echinochloa crus-galli; settings: for Barnyardgrass plant response rating: postemergence, visual rating, scale 0 (no effect) to 100 (complete control)
In short: (§1)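 Formulation: non-phytotoxic solvent mix with surfactant. Timing: preemergence on seed and postemergence on 2–18 cm plants, applied concurrently. Readout after 13–15 d greenhouse: visual 0–100 control rating against controls.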

[2] = system: Surinam grass; assay: Test B pre-/postemergence herbicide test; format: in vivo, Urochloa decumbens; settings: for Surinam Grass plant response rating: postemergence, visual rating, scale 0 (no effect) to 100 (complete control)
In short: (§2)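 Test chemicals in a non-phytotoxic solvent mixture with surfactant were applied preemergence to seeded species and postemergence to plants 2-18 cm tall (1- to 4-leaf stage); rice and barnyardgrass were also tested in a flooded paddy at the 2-leaf stage. Visual rating versus controls after 13-15 days in greenhouse, scale 0 (no effect) to 100 (complete control).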

[3] = system: cocklebur; assay: Test B pre-/postemergence herbicide test; format: in vivo, Xanthium strumarium; settings: for Cocklebur plant response rating: postemergence, visual rating, scale 0 (no effect) to 100 (complete control)
In short: as §1

[4] = system: corn; assay: Test B pre-/postemergence herbicide test; format: in vivo, Zea mays; settings: for Corn plant response rating: postemergence, visual rating, scale 0 (no effect) to 100 (complete control)
In short: as §2

[5] = system: large crabgrass; assay: Test B pre-/postemergence herbicide test; format: in vivo, Digitaria sanguinalis; settings: for Crabgrass, Large plant response rating: postemergence, visual rating, scale 0 (no effect) to 100 (complete control)
In short: as §2

[6] = system: giant foxtail; assay: Test B pre-/postemergence herbicide test; format: in vivo, Setaria faberi; settings: for Foxtail, Giant plant response rating: postemergence, visual rating, scale 0 (no effect) to 100 (complete control)
In short: as §2

[7] = system: lambsquarters; assay: Test B pre-/postemergence herbicide test; format: in vivo, Chenopodium album; settings: for Lambsquarters plant response rating: postemergence, visual rating, scale 0 (no effect) to 100 (complete control)
In short: as §2

[8] = system: morningglory; assay: Test B pre-/postemergence herbicide test; format: in vivo, Ipomoea coccinea; settings: for Morningglory plant response rating: postemergence, visual rating, scale 0 (no effect) to 100 (complete control)
In short: as §1

[9] = system: pigweed; assay: Test B pre-/postemergence herbicide test; format: in vivo, Amaranthus retroflexus; settings: for Pigweed plant response rating: postemergence, visual rating, scale 0 (no effect) to 100 (complete control)
In short: as §2

[10] = system: rice; assay: Test B pre-/postemergence herbicide test; format: in vivo, Oryza sativa; settings: preemergence
Source text: Seeds selected from barnyardgrass (Echinochloa crus-galli (L.) Beauv.), Surinam grass (Urochloa decumbens (Staph) R. D. Webster, previously named Brachiaria decumbens Stapf), cocklebur (Xanthium strumarium L.), corn (Zea mays L.), large crabgrass (Digitaria sanguinalis (L.) Scop.), giant foxtail (Setaria faberi Herim.), lambsquarters (Chenopodium album L.), morningglory (Ipomoea coccinea L.), pigweed (Amaranthus retroflexus L.), rice (Oryza sativa L.) and velvetleaf (Abutilon theophrasti Medik.) were planted and treated preemergence with test chemicals formulated in a non-phytotoxic solvent mixture which included a surfactant.
At the same time, plants selected from these crop and weed species and also blackgrass (Alopecurus myosuroides Huds.), wheat (Triticum aestivum L.) and wild oat (Avena fatua L.) were treated with postemergence applications of test chemicals formulated in the same manner. Plants ranged in height from 2 to 18 cm (1- to 4-leaf stage) for postemergence treatments. Plant species in the flooded paddy test consisted of rice (Oryza sativa L.), small flower umbrella sedge (Cyperus difformis L.), ducksalad (Heteranthera limosa (Sw.) Willd.) and barnyardgrass (Echinochloa crus-galli (L.) Beauv.) grown to the 2-leaf stage for testing. Treated plants and controls were maintained in a greenhouse for 13 to 15 days, after which time all species were compared to controls and visually evaluated. Plant response ratings, summarized in Table B, are based on a scale of 0 to 100 where 0 is no effect and 100 is complete control. A dash (-) response means no test result.

[11] = system: velvetleaf; assay: Test B pre-/postemergence herbicide test; format: in vivo, Abutilon theophrasti; settings: for Velvetleaf plant response rating: postemergence, visual rating, scale 0 (no effect) to 100 (complete control)
In short: as §2

[12] = system: blackgrass; assay: Test B postemergence herbicide test; format: in vivo, Alopecurus myosuroides; settings: postemergence, visual rating, scale 0 (no effect) to 100 (complete control)
In short: (§3)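 Scale 0–100: zero equals no visible effect, 100 complete control, judged by eye relative to controls. Timing: 13 to 15 days in greenhouse post-treatment. Growth stage at spraying: two leaves (paddy) or one to four leaves, 2–18 cm (postemergence).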

[13] = system: wheat; assay: Test B postemergence herbicide test; format: in vivo, Triticum aestivum; parameters: key to Wheat plant response rating: 0 = no effect, 100 = complete control; settings: postemergence, visual rating, scale 0 (no effect) to 100 (complete control)
In short: as §3

[14] = system: wild oat; assay: Test B postemergence herbicide test; format: in vivo, Avena fatua; settings: postemergence, visual rating, scale 0 (no effect) to 100 (complete control)
In short: as §3

[15] = system: rice; assay: Test B flooded paddy test; format: in vivo, Oryza sativa; settings: 1000 g ai/ha, visual rating, scale 0 to 100 (0 no effect, 100 complete control), 13 to 15 days
In short: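 Paddy species grown to the 2-leaf stage under flooding; blackgrass sprayed postemergence at 2–18 cm (1- to 4-leaf stage). Plants kept in a greenhouse for 13 to 15 days, then visually rated against controls on 0 (no effect) to 100 (complete control).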

[16] = system: small flower umbrella sedge; assay: Test B flooded paddy test; format: in vivo, Cyperus difformis; settings: 1000 g ai/ha, visual rating, scale 0 to 100 (0 no effect, 100 complete control), 13 to 15 days
In short: as §3

[17] = system: ducksalad; assay: Test B flooded paddy test; format: in vivo, Heteranthera limosa; settings: 1000 g ai/ha, visual rating, scale 0 to 100 (0 no effect, 100 complete control), 13 to 15 days
In short: as §3

[18] = system: barnyardgrass; assay: Test B flooded paddy test; format: in vivo, Echinochloa crus-galli; settings: 1000 g ai/ha, visual rating, scale 0 to 100 (0 no effect, 100 complete control), 13 to 15 days
In short: as §3

[19] = 125 g ai/ha, 0 = no effect, 100 = complete control, preemergence
[20] = 500 g ai/ha, visual rating 0-100, 0 no effect, 100 complete control, preemergence

Q: Which “Barnyardgrass plant response rating (0 to 100 scale)” value [1, 19] does the source give for `CC(=NO)c1cccc(NC(=O)c2nn(C(C)(C)C)cc2C(F)(F)F)c1` [Compound 171] here?
A: 0

Q: What about the “Plant response rating, Barnyardgrass” value [1, 20] of the same molecule?
A: 0

Q: And the “Barnyardgrass plant response rating” value ([1]; 125 g ai/ha)?
A: 0

Q: And the “Barnyardgrass plant response rating” value ([1]; 500 g ai/ha)?
A: 10

Q: And the “Plant response rating, Surinam Grass” value [2, 20]?
A: 0

Q: What about the “Surinam Grass plant response rating” value ([2]; 125 g ai/ha) of the same molecule?
A: 10

Q: What about the “Surinam Grass plant response rating” value ([2]; 500 g ai/ha) of the same molecule?
A: 10

Q: What about the “Cocklebur plant response rating (0 to 100 scale)” value [3, 19] of the same molecule?
A: 0

Q: And the “Plant response rating, Cocklebur” value [3, 20]?
A: 0

Q: What about the “Cocklebur plant response rating” value ([3]; 125 g ai/ha) of the same molecule?
A: 0

Q: What about the “Cocklebur plant response rating” value ([3]; 500 g ai/ha) of the same molecule?
A: 0

Q: And the “Corn plant response rating (0 to 100 scale)” value [4, 19]?
A: 0

Q: What about the “Plant response rating, Corn” value [4, 20] of the same molecule?
A: 0

Q: What about the “Corn plant response rating” value ([4]; 125 g ai/ha) of the same molecule?
A: 0

Q: And the “Corn plant response rating” value ([4]; 500 g ai/ha)?
A: 10

Q: And the “Crabgrass, Large plant response rating (0 to 100 scale)” value [5, 19]?
A: 0

Q: And the “Plant response rating, Crabgrass, Large” value [5, 20]?
A: 30

Q: What about the “Crabgrass, Large plant response rating” value ([5]; 125 g ai/ha) of the same molecule?
A: 0

Q: What about the “Crabgrass, Large plant response rating” value ([5]; 500 g ai/ha) of the same molecule?
A: 10

Q: And the “Plant response rating, Foxtail, Giant” value [6, 20]?
A: 0

Q: What about the “Foxtail, Giant plant response rating” value ([6]; 125 g ai/ha) of the same molecule?
A: 10

Q: What about the “Foxtail, Giant plant response rating” value ([6]; 500 g ai/ha) of the same molecule?
A: 20

Q: What about the “Lambsquarters plant response rating (0 to 100 scale)” value [7, 19] of the same molecule?
A: 0

Q: And the “Plant response rating, Lambsquarters” value [7, 20]?
A: 0

Q: And the “Lambsquarters plant response rating” value ([7]; 125 g ai/ha)?
A: 10

Q: And the “Lambsquarters plant response rating” value ([7]; 500 g ai/ha)?
A: 20

Q: What about the “Morningglory plant response rating (0 to 100 scale)” value [8, 19] of the same molecule?
A: 0

Q: What about the “Morningglory plant response rating” value ([8]; 125 g ai/ha) of the same molecule?
A: 0

Q: And the “Morningglory plant response rating” value ([8]; 500 g ai/ha)?
A: 0

Q: What about the “Pigweed plant response rating (0 to 100 scale)” value [9, 19] of the same molecule?
A: 0

Q: What about the “Plant response rating, Pigweed” value [9, 20] of the same molecule?
A: 0

Q: What about the “Pigweed plant response rating” value ([9]; 125 g ai/ha) of the same molecule?
A: 10

Q: And the “Pigweed plant response rating” value ([9]; 500 g ai/ha)?
A: 20

Q: What about the “Rice plant response rating (0 to 100 scale)” value ([10]; 125 g ai/ha, 0 = no effect, 100 = complete control) of the same molecule?
A: 0

Q: What about the “Plant response rating, Rice” value ([10]; 500 g ai/ha, visual rating 0-100, 0 no effect, 100 complete control) of the same molecule?
A: 0

Q: And the “Velvetleaf plant response rating (0 to 100 scale)” value [11, 19]?
A: 0

Q: And the “Plant response rating, Velvetleaf” value [11, 20]?
A: 20

Q: And the “Velvetleaf plant response rating” value ([11]; 125 g ai/ha)?
A: 0

Q: And the “Velvetleaf plant response rating” value ([11]; 500 g ai/ha)?
A: 0

Q: What about the “Blackgrass plant response rating” value ([12]; 125 g ai/ha) of the same molecule?
A: 0

Q: And the “Blackgrass plant response rating” value ([12]; 500 g ai/ha)?
A: 0

Q: What about the “Wheat plant response rating” value ([13]; 125 g ai/ha) of the same molecule?
A: 0

Q: What about the “Wheat plant response rating” value ([13]; 500 g ai/ha) of the same molecule?
A: 0

Q: What about the “Oat, Wild plant response rating” value ([14]; 125 g ai/ha) of the same molecule?
A: 0

Q: And the “Oat, Wild plant response rating” value ([14]; 500 g ai/ha)?
A: 0

Q: And the “Rice plant response rating” value [15]?
A: 0

Q: What about the “Sedge, Umbrella plant response rating” value [16] of the same molecule?
A: 0

Q: What about the “Ducksalad plant response rating” value [17] of the same molecule?
A: 0

Q: And the “Barnyardgrass plant response rating” value [18]?
A: 0
